Experimental data reported in ChEMBL document CHEMBL4804284.

Assays:
Design in all cases: scale not given: the % may be the effect or the level left
[1] = target: Ephrin type-A receptor 8 (Homo sapiens) (UniProt P29322); test: Inhibition of DNA-tagged human EPHA8 assessed as percent of control at 50000 nM by qPCR analysis relative to control
[2] = target: Phosphatidylinositol 3-kinase C2 domain-containing subunit gamma (Homo sapiens) (UniProt O75747); test: Inhibition of DNA-tagged human PIK3C2G assessed as percent of control at 50000 nM by qPCR analysis relative to control
Chain of Phosphatidylinositol 3-kinase C2 domain-containing subunit gamma (Homo sapiens) (O75747 whole entry, the tested form may be a part): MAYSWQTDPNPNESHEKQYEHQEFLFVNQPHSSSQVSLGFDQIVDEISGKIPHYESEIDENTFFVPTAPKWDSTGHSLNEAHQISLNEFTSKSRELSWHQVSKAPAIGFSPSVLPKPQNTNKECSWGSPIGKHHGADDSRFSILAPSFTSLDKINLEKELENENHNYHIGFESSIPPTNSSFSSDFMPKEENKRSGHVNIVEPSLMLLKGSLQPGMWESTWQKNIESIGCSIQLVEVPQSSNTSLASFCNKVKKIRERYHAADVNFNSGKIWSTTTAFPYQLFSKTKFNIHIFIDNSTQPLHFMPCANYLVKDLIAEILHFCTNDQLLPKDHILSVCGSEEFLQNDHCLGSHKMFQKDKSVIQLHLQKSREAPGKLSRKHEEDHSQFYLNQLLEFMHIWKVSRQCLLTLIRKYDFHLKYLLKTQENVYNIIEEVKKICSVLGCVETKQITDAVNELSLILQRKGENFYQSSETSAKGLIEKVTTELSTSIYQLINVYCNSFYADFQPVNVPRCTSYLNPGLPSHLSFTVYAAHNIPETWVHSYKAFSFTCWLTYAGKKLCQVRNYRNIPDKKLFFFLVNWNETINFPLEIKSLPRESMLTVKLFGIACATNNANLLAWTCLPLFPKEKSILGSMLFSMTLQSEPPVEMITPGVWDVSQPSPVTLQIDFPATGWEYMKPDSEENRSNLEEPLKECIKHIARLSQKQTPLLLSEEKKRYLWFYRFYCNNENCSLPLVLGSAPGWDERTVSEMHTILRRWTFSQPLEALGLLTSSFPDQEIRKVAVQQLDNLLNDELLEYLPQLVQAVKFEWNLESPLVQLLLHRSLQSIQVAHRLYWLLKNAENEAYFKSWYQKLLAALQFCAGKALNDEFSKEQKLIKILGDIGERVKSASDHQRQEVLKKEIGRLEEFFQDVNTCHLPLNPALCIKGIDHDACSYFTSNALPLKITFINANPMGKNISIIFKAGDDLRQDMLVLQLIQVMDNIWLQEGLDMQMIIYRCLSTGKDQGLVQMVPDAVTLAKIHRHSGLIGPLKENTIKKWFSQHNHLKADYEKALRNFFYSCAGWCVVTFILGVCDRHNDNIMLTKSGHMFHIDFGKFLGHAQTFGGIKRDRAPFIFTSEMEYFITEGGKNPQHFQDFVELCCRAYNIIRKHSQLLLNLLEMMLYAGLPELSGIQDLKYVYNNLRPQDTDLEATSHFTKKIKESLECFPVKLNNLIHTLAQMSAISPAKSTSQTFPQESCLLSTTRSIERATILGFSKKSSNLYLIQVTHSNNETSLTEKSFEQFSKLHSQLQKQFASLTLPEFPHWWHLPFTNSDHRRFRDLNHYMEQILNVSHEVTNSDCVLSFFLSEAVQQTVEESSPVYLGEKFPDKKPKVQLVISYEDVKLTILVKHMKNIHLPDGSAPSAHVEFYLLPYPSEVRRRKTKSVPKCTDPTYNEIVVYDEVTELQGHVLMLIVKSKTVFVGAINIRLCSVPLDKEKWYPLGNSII

[3] = target: Serine/threonine-protein kinase N2 (Homo sapiens) (UniProt Q16513); test: Inhibition of DNA-tagged human PKN2 assessed as percent of control at 50000 nM by qPCR analysis relative to control
[4] = system: Epidermal growth factor receptor (Homo sapiens), P00533 [UNDEFINED MUTATION]; test: Inhibition of DNA-tagged human EGFR S752-1759del mutant assessed as percent of control at 50000 nM by qPCR analysis relative to control
Chain of Epidermal growth factor receptor (Homo sapiens), P00533 [UNDEFINED MUTATION] (P00533 whole entry, looked up, stated change not applied): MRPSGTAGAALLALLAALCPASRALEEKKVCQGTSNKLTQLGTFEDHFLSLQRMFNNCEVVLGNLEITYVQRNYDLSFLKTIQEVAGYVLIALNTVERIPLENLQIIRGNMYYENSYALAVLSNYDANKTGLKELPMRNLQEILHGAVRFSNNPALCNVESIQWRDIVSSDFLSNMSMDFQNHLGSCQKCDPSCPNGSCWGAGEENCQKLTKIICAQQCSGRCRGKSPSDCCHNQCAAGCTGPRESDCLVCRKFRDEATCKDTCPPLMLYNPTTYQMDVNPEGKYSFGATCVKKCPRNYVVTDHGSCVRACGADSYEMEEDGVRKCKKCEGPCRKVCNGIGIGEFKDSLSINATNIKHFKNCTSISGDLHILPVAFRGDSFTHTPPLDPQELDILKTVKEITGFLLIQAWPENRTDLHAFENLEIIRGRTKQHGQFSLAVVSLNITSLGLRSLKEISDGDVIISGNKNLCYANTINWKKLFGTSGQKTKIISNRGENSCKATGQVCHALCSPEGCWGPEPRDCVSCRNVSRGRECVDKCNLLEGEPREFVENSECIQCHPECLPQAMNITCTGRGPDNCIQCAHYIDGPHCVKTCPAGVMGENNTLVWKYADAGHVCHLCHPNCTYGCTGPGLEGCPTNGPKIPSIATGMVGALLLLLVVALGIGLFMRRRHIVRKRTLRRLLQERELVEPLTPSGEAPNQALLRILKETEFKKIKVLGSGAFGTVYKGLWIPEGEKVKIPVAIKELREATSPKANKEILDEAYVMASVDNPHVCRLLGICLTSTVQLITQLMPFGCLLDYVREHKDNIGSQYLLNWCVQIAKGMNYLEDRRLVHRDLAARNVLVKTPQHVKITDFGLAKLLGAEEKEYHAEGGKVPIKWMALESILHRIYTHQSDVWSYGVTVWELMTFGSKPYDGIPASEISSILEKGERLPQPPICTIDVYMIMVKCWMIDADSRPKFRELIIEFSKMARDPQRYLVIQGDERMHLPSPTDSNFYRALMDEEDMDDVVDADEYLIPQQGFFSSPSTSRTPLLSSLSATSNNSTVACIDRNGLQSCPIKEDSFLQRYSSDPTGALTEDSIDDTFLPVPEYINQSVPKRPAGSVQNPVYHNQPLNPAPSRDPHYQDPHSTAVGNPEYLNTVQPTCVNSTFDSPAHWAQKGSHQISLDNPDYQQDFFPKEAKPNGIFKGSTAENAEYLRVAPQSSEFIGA

[5] = target: Serine/threonine-protein kinase PAK 6 (Homo sapiens) (UniProt Q9NQU5); test: Inhibition of DNA-tagged human PAK6 assessed as percent of control at 50000 nM by qPCR analysis relative to control
[6] = target: Receptor-interacting serine/threonine-protein kinase 1 (Homo sapiens) (UniProt Q13546); test: Inhibition of DNA-tagged human RIPK1 assessed as percent of control at 50000 nM by qPCR analysis relative to control
[7] = target: Ephrin type-B receptor 3 (Homo sapiens) (UniProt P54753); test: Inhibition of DNA-tagged human EPHB3 assessed as percent of control at 50000 nM by qPCR analysis relative to control
[8] = target: Dual specificity testis-specific protein kinase 1 (Homo sapiens) (UniProt Q15569); test: Inhibition of DNA-tagged human TESK1 assessed as percent of control at 50000 nM by qPCR analysis relative to control
[9] = target: Ribosomal protein S6 kinase alpha-5 (Homo sapiens) (UniProt O75582); test: Inhibition of DNA-tagged human C-terminal RPS6KA5 kinase domain 2 assessed as percent of control at 50000 nM by qPCR analysis relative to control
[10] = target: Serine/threonine-protein kinase D1 (Homo sapiens) (UniProt Q15139); test: Inhibition of DNA-tagged human PRKD1 assessed as percent of control at 50000 nM by qPCR analysis relative to control
[11] = target: Tyrosine-protein kinase Fgr (Homo sapiens) (UniProt P09769); test: Inhibition of DNA-tagged human FGR assessed as percent of control at 50000 nM by qPCR analysis relative to control
[12] = target: Tyrosine-protein kinase Srms (Homo sapiens) (UniProt Q9H3Y6); test: Inhibition of DNA-tagged human SRMS assessed as percent of control at 50000 nM by qPCR analysis relative to control
[13] = target: Non-receptor tyrosine-protein kinase TYK2 (Homo sapiens) (UniProt P29597); test: Inhibition of DNA-tagged human TYK2 JH1 catalytic domain assessed as percent of control at 50000 nM by qPCR analysis relative to control
[14] = target: Death-associated protein kinase 3 (Homo sapiens) (UniProt O43293); test: Inhibition of DNA-tagged human DAPK3 assessed as percent of control at 50000 nM by qPCR analysis relative to control
[15] = target: Glycogen synthase kinase-3 alpha (Homo sapiens) (UniProt P49840); test: Inhibition of DNA-tagged human GSK3A assessed as percent of control at 50000 nM by qPCR analysis relative to control
[16] = target: Citron Rho-interacting kinase (Homo sapiens) (UniProt O14578); test: Inhibition of DNA-tagged human CIT assessed as percent of control at 50000 nM by qPCR analysis relative to control
[17] = target: Dual specificity protein kinase CLK2 (Homo sapiens) (UniProt P49760); test: Inhibition of DNA-tagged human CLK2 assessed as percent of control at 50000 nM by qPCR analysis relative to control
Chain of Dual specificity protein kinase CLK2 (Homo sapiens) (P49760 whole entry, looked up): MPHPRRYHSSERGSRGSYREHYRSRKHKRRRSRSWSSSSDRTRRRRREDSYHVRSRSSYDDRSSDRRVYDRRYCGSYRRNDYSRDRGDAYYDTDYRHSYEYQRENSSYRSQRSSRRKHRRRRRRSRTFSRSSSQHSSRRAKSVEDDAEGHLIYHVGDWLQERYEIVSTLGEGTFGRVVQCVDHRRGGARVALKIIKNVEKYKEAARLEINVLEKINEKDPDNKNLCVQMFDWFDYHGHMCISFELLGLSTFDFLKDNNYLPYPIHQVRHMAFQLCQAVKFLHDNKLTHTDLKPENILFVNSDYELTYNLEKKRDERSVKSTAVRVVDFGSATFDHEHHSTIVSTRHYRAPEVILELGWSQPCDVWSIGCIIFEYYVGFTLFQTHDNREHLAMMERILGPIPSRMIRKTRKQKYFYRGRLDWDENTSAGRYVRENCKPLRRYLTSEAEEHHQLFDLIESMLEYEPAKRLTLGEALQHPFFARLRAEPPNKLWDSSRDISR

[18] = target: Mitogen-activated protein kinase 13 (Homo sapiens) (UniProt O15264); test: Inhibition of DNA-tagged human p38-delta assessed as percent of control at 50000 nM by qPCR analysis relative to control
[19] = target: Tyrosine-protein kinase Lyn (Homo sapiens) (UniProt P07948); test: Inhibition of DNA-tagged human LYN assessed as percent of control at 50000 nM by qPCR analysis relative to control
[20] = target: Ribosomal protein S6 kinase alpha-6 (Homo sapiens) (UniProt Q9UK32); test: Inhibition of DNA-tagged human C-terminal RSK4 kinase domain 2 assessed as percent of control at 50000 nM by qPCR analysis relative to control
[21] = system: Epidermal growth factor receptor (Homo sapiens), P00533 [UNDEFINED MUTATION]; test: Inhibition of DNA-tagged human EGFR L747-S752del/P753S double mutant assessed as percent of control at 50000 nM by qPCR analysis relative to control
[22] = target: Casein kinase II subunit alpha (Homo sapiens) (UniProt P68400); test: Inhibition of DNA-tagged human CSNK2A1 assessed as percent of control at 50000 nM by qPCR analysis relative to control
Chain of Casein kinase II subunit alpha (Homo sapiens) (P68400 whole entry, looked up): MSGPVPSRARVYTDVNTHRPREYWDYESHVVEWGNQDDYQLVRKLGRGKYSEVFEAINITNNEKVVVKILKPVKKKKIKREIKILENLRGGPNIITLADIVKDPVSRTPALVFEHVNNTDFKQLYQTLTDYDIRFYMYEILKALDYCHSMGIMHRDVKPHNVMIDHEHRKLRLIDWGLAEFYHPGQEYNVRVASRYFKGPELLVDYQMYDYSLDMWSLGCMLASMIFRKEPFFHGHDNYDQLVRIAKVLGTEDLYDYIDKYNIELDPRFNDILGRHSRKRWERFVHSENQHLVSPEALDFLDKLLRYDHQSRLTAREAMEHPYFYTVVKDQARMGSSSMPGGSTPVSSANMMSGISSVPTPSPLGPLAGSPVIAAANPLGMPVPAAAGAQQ

[23] = target: Leukocyte tyrosine kinase receptor (Homo sapiens) (UniProt P29376); test: Inhibition of DNA-tagged human LTK assessed as percent of control at 50000 nM by qPCR analysis relative to control
[24] = target: Mitogen-activated protein kinase kinase kinase 1 (Homo sapiens) (UniProt Q13233); test: Inhibition of DNA-tagged human MAP3K1 assessed as percent of control at 50000 nM by qPCR analysis relative to control
[25] = target: CDK4/Cyclin D3 (Homo sapiens) (UniProt P11802+P30281); test: Inhibition of DNA-tagged human CDK4/cyclin D3 assessed as percent of control at 50000 nM by qPCR analysis relative to control; type: protein-complex assay
[26] = target: Serine/threonine-protein kinase PLK2 (Homo sapiens) (UniProt Q9NYY3); test: Inhibition of DNA-tagged human PLK2 assessed as percent of control at 50000 nM by qPCR analysis relative to control
Chain of Serine/threonine-protein kinase PLK2 (Homo sapiens) (Q9NYY3 whole entry, looked up): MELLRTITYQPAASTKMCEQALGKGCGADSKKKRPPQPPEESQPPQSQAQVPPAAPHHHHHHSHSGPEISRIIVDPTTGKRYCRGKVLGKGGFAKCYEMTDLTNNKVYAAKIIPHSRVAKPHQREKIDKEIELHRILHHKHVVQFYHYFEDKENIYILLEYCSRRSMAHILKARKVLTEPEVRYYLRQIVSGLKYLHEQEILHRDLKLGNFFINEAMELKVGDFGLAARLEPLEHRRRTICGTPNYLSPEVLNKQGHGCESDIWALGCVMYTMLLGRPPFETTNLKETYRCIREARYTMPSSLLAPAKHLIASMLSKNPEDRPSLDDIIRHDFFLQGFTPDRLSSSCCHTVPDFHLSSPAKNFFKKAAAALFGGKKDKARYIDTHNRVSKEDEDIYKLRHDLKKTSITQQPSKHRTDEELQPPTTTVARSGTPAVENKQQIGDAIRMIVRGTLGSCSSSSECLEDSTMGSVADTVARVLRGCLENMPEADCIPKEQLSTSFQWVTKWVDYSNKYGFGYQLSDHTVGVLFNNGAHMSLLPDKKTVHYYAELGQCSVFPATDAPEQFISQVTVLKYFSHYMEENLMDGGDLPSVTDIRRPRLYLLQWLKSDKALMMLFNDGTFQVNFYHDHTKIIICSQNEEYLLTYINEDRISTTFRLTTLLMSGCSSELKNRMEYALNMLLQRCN

[27] = target: TGF-beta receptor type-1 (Homo sapiens) (UniProt P36897); test: Inhibition of DNA-tagged human TGFBR1 assessed as percent of control at 50000 nM by qPCR analysis relative to control
[28] = target: MAP/microtubule affinity-regulating kinase 4 (Homo sapiens) (UniProt Q96L34); test: Inhibition of DNA-tagged human MARK4 assessed as percent of control at 50000 nM by qPCR analysis relative to control
Chain of MAP/microtubule affinity-regulating kinase 4 (Homo sapiens) (Q96L34 whole entry): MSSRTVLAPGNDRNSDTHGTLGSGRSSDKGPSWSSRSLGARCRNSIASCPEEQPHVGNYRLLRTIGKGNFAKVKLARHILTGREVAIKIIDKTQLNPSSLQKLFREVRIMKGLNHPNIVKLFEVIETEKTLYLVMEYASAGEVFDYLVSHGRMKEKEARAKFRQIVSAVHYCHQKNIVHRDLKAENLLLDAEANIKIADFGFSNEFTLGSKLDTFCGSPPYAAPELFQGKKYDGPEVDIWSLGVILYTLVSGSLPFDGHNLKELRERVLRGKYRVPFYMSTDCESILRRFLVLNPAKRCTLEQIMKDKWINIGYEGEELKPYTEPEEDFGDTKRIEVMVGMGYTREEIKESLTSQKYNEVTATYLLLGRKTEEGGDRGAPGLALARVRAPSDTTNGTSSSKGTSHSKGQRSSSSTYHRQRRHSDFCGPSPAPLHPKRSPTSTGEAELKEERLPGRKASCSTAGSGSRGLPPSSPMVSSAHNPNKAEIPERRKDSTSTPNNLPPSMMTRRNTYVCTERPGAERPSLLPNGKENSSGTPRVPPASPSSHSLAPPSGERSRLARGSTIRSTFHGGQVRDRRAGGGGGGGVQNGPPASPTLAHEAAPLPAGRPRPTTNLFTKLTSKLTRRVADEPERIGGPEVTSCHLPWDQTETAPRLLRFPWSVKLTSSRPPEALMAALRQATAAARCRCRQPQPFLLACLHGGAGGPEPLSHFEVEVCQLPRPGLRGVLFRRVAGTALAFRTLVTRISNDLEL

[29] = target: Serine/threonine-protein kinase 4 (Homo sapiens) (UniProt Q13043); test: Inhibition of DNA-tagged human MST1 assessed as percent of control at 50000 nM by qPCR analysis relative to control
[30] = target: Phosphatidylinositol 4-kinase beta (Homo sapiens) (UniProt Q9UBF8); test: Inhibition of DNA-tagged human PIK4CB assessed as percent of control at 50000 nM by qPCR analysis relative to control

## CN1C(=O)/C(=C2/C(=O)Nc3ccccc32)c2ccccc21
[1]
  Activity: 94%
[2]
  Activity: 99%
[3]
  Activity: 99%
[4]
  Activity: 88%
[5]
  Activity: 100%
[6]
  Activity: 95%
[7]
  Activity: 90%
[8]
  Activity: 100%
[9]
  Activity: 100%
[10]
  Activity: 97%
[11]
  Activity: 95%
[12]
  Activity: 88%
[13]
  Activity: 77%
[14]
  Activity: 93%
[15]
  Activity: 85%
[16]
  Activity: 78%
[17]
  Activity: 75%
[18]
  Activity: 100%
[19]
  Activity: 100%
[20]
  Activity: 71%
[21]
  Activity: 64%
[22]
  Activity: 79%
[23]
  Activity: 92%
[24]
  Activity: 83%
[25]
  Activity: 100%
[26]
  Activity: 94%
[27]
  Activity: 100%
[28]
  Activity: 77%
[29]
  Activity: 95%
[30]
  Activity: 100%
